Assay [1] concerns heat-induced edema. Put plainly: Suppression of heat-induced edema in the anesthetized rat hind paw. Type of assay: in vivo. The method, then: The index of anti-inflammatory activity was measured as suppression by heat-induced edema. Briefly, male Sprague-Dawley rats weighing 200-250 g were anesthetized with sodium pentobarbital (60 mg/kg i.p.). Saline (1 ml/kg body weight) or test substances dissolved in saline were injected i.v. via a branch of the femoral vein. Ten minutes after injection, thermal stimulus was applied to the hind paw by immersion of the foot, up to the ankle joint, in 58° C. water for 1 minute. Thirty minutes after heat exposure, animals were killed by overdose with concentrated sodium pentobarbital and both hind paws were removed at the ankle joint and weighed. The degree of heat-induced edema was estimated as the difference between the weights of the heated and unheated paws divided by the weight of the unheated paw. Four to six analogs (N≥3 animals per dose level with 3 to 4 dose levels per analog) were tested on each occasion with concurrent saline controls. The median effective dose (ED50) was calculated according to the method of Litchfield and Wilcoxon (1949).

Assay [2] addresses T1, CRF-R1 (Rattus norvegicus, UniProt P35353).
T1 construct: Cells were transfected with the full-length cDNA of these receptors; expressed in transfected cells
T1 sequence (P35353 24-415): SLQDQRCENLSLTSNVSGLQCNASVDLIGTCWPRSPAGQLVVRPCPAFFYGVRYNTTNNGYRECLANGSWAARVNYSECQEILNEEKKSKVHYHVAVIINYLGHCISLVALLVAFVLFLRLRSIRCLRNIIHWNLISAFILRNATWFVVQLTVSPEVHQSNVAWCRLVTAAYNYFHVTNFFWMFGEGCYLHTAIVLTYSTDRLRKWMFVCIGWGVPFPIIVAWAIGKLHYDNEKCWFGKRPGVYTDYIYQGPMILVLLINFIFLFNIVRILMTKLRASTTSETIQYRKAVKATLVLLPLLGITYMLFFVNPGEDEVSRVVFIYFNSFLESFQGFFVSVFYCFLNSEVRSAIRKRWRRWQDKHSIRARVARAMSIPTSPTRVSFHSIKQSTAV
Put plainly: cAMP stimulation in 293-EBNA cells transfected with CRF-R1 (PC-CRF receptor). Type of assay: cell-based. As to conditions: for EC50: Table 2, cAMP, 293-EBNA stable transfectants.
Description: These were the pituitary-central nervous system (PC)-CRF receptor and the heart muscle (HM)-CRF receptor, also called CRF-R1 and CRF-R2β. Cells were transfected with the full-length cDNA of these receptors. […] Stable transfectants were incubated with 50 μM 3-isobutylmethyl-1-methylxanthine for 20 minutes at 37° C. and then peptides were added and incubated for another 20 minutes at 37° C. Levels of cAMP were assayed in sextuplicate. Cells transfected with these CRF receptors are sensitive to the cAMP stimulatory effects of CRF.

For assay [3], the target named is T2, CRF binding protein (Homo sapiens, UniProt P24387).
T2 sequence (P24387 25-322): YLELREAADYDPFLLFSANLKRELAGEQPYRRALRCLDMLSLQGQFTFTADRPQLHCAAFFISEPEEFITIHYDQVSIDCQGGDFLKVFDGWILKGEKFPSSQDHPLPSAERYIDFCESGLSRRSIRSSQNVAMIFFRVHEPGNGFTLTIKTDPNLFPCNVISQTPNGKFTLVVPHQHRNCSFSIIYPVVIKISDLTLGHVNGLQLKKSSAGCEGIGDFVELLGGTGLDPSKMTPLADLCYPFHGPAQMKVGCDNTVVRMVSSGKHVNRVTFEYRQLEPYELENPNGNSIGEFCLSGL
Put plainly: Complex formation of I125-labelled peptide with CRF-binding protein, Sephadex G100 column. Conditions: radio-iodinated peptide, Sephadex G100 fractions. As to the method: Both peptides were radio-iodinated with I^125, incubated with CRF-binding protein, placed on a Sephadex G100 column and the fractions collected.

Assay [4] concerns rat pituitary cells. Put plainly: In vitro ACTH release from rat pituitary segments, radioimmunoassay (FIG. 2). Format: cell-based. As to conditions: ir-ACTH. The method, then: In determining ACTH release, an useful assay system to measure ACTH release by an in vitro assay is where basal or CRF-induced ACTH release is measured in the manner described by Vale et al. ("Assay of Corticotropin Releasing Factor," Methods in Enzymology: Neuroendocrine Peptides, 103, pp. 565-577, Conn. Ed., Academic Press, New York, 1983). The results shown in FIG. 2 were obtained by incubating the test peptides with segments of rat pituitary cells. After incubation the ACTH in the fluid bathing these segments were measured by radioimmunoassay (ir-ACTH) in units of pg of ACTH per mg of pituitary tissue. […] After the addition of CRF, this is increased in a dose-dependent relationship. […] However, the anti-edema potencies between these two peptides were identical.

Assay [5] deals with ACTH release. Put plainly: Relative ACTH-releasing potency of singly D-substituted ovine CRF analogs (FIG. 1). Conditions: relative to unmodified oCRF. The source says: Turning to FIG. 1, 37 different ovine CRF analogs were singly substituted with a D-amino acid and screened for suppression of heat-induced edema and relative ACTH-releasing potency. […]
For assay [6], the target named is T3, CRF-R2β (Mus musculus, UniProt Q60748).
T3 construct: Cells were transfected with the full-length cDNA of these receptors; expressed in transfected cells
Description: cAMP stimulation in 293-EBNA cells transfected with CRF-R2β (HM-CRF receptor). Conditions: Table 2; for EC50: cAMP, 293-EBNA stable transfectants. Type of assay: cell-based. As to the method: For another assay, two types of cloned CRF receptors were assessed for their responses to the CRF analogs. These were the pituitary-central nervous system (PC)-CRF receptor and the heart muscle (HM)-CRF receptor, also called CRF-R1 and CRF-R2β. Cells were transfected with the full-length cDNA of these receptors. These procedures were performed according to Chang et al., Neuron, 11, pp. 1187-1195 (1993) and Kishimoto et al., Proc. Natl. Acad. Sci. USA, 92, pp. 1108 (1995). cDNAS for the PC-CRF receptor and the HM-CRF receptor were subcloned into expression vector pCEP4 and transfected into 293-EBNA cells. Stable transfectants were incubated with 50 μM 3-isobutylmethyl-1-methylxanthine for 20 minutes at 37° C. and then peptides were added and incubated for another 20 minutes at 37° C. Levels of cAMP were assayed in sextuplicate. Cells transfected with these CRF receptors are sensitive to the cAMP stimulatory effects of CRF. […] As noted previously, the anti-inflammatory potency of these two analogs were also identical.

The test system of assay [7] is heat-induced edema. As to conditions: intravenous; Wei and Kiang 1989; cited from earlier work.
Setting [8] is: i.v. 10 min before 58° C. water for 1 minute, paw weight 30 min after heat, 95% CL in brackets.

Non-standard residues stand in square brackets, D forms with d. No end group written: not given here.

T3 sequence (Q60748 1-431 isoform Q60748-2): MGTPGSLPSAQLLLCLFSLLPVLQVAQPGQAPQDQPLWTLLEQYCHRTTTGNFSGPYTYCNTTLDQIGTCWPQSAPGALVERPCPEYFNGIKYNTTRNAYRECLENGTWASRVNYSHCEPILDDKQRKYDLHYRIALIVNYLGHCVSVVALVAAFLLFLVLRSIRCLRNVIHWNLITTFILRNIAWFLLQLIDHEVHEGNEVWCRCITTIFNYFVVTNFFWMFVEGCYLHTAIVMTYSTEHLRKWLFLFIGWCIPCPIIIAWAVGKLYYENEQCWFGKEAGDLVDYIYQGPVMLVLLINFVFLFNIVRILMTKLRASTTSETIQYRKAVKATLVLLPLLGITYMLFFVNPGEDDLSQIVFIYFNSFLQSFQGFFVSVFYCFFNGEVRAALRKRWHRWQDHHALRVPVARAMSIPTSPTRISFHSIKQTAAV

For the compound “[D-Pro^5 ] human/rat CRF [[D-Pro^5]h/rCRF]”, the “ED50 (95% CL) μg/kg i.v.” value was 10 µg/kg in assay [1] (Table 3, i.v.) and 10 (3-33) μg/kg in assay [1] (setting [8]). Also, in assay [2] (FIG. 3, versus h/rCRF), the “change of potency for CRF-R1 after replacement of Pro5 by D-Pro” value is reported as “reduced by about six-fold”. In addition, the “complex formation with CRF-binding protein” value in assay [3] is “formed a complex with binding protein”. Further, the “decrease of potency for ACTH release versus CRF” value in assay [4] is “at least 10 fold”.

In the case of `CC[C@H](C)[C@H](NC(=O)[C@H](CC(=O)O)NC(=O)[C@H](CC(C)C)NC(=O)[C@H](CC(C)C)NC(=O)[C@H](CCCCN)NC(=O)[C@H](CCCNC(=N)N)NC(=O)[C@H](CC(N)=O)NC(=O)[C@H](CO)NC(=O)[C@H](Cc1c[nH]cn1)NC(=O)[C@H](C)NC(=O)[C@H](CCC(N)=O)NC(=O)[C@H](CCC(N)=O)NC(=O)[C@H](C)NC(=O)[C@H](CC(C)C)NC(=O)[C@H](CCC(N)=O)NC(=O)[C@H](CC(=O)O)NC(=O)[C@H](C)NC(=O)[C@H](CCCCN)NC(=O)[C@@H](NC(=O)[C@H](CCSC)NC(=O)[C@H](CCC(=O)O)NC(=O)[C@H](CC(C)C)NC(=O)[C@@H](NC(=O)[C@H](CCC(=O)O)NC(=O)[C@H](CCCNC(=N)N)NC(=O)[C@H](CC(C)C)NC(=O)[C@H](CC(C)C)NC(=O)[C@H](Cc1c[nH]cn1)NC(=O)[C@H](Cc1ccccc1)NC(=O)[C@@H](NC(=O)[C@H](CC(C)C)NC(=O)[C@H](CC(=O)O)NC(=O)[C@H](CC(C)C)NC(=O)[C@H](CO)NC(=O)[C@@H](NC(=O)[C@H]1CCCN1C(=O)[C@@H]1CCCN1C(=O)[C@H](CCC(=O)O)NC(=O)[C@H](CCC(N)=O)NC(=O)[C@@H](N)CO)[C@@H](C)CC)[C@@H](C)O)C(C)C)[C@@H](C)O)C(=O)N[C@@H](C)C(N)=O` [[D-Pro^5]oCRF], the “ACTH-releasing potency retained relative to the unmodified peptide” value in assay [5] came out at 8%.

A word on the EC50: it is the concentration needed to bring the measured effect to its halfway point. High values mean lower potency in that assay, low ones higher potency in that assay. As to `CC[C@H](C)[C@H](NC(=O)[C@H](CO)NC(=O)[C@H](CC(C)C)NC(=O)[C@H]1CCCN1C(=O)[C@@H]1CCCN1C(=O)[C@H](CC(=O)O)NC(=O)[C@@H](N)CC(=O)O)C(=O)N[C@@H](CC(=O)O)C(=O)N[C@@H](CC(C)C)C(=O)N[C@H](C(=O)N[C@@H](Cc1ccccc1)C(=O)N[C@@H](Cc1c[nH]cn1)C(=O)N[C@@H](CC(C)C)C(=O)N[C@@H](CC(C)C)C(=O)N[C@@H](CCCNC(=N)N)C(=O)N[C@H](C(=O)N[C@@H](CC(C)C)C(=O)N[C@@H](CC(C)C)C(=O)N[C@@H](CCC(=O)O)C(=O)N[C@@H](CC(C)C)C(=O)N[C@@H](C)C(=O)N[C@@H](CCCNC(=N)N)C(=O)N[C@H](C(=O)N[C@@H](CCC(N)=O)C(=O)N[C@@H](CO)C(=O)N[C@@H](CCC(N)=O)C(=O)N[C@@H](CCCNC(=N)N)C(=O)N[C@@H](CCC(=O)O)C(=O)N[C@@H](CCCNC(=N)N)C(=O)N[C@@H](C)C(=O)N[C@@H](CCC(=O)O)C(=O)N[C@@H](CCC(N)=O)C(=O)N[C@@H](CC(N)=O)C(=O)N[C@@H](CCCNC(=N)N)C(=O)N[C@H](C(=O)N[C@H](C(=O)N[C@@H](Cc1ccccc1)C(=O)N[C@@H](CC(=O)O)C(=O)N[C@@H](CO)C(=O)N[C@H](C(N)=O)C(C)C)[C@@H](C)CC)[C@@H](C)CC)[C@@H](C)O)[C@@H](C)O)[C@@H](C)O` [[D-Pro^4]urocortin (rat)], the values for the EC50 in assay [2] and in assay [6] were 0.2 nM and 1 nM, respectively. Besides, the “Increment in Selectivity” value in assay [6] (D-substituted analog versus parent peptide) was 2.5 fold.

For `CC[C@H](C)[C@H](NC(=O)[C@@H](NC(=O)[C@H](CC(=O)O)NC(=O)[C@H](CC(C)C)NC(=O)[C@H](CC(C)C)NC(=O)[C@H](CC(C)C)NC(=O)[C@H](CCCNC(=N)N)NC(=O)[C@H](CC(N)=O)NC(=O)[C@H](CC(N)=O)NC(=O)[C@H](C)NC(=O)[C@H](C)NC(=O)[C@H](CCC(N)=O)NC(=O)[C@H](CCC(N)=O)NC(=O)[C@H](CCCCN)NC(=O)[C@H](CCC(=O)O)NC(=O)[C@H](CCCCN)NC(=O)[C@H](CCC(=O)O)NC(=O)[C@H](CCC(N)=O)NC(=O)[C@H](CCCCN)NC(=O)[C@H](CCC(=O)O)NC(=O)[C@@H](NC(=O)[C@H](CCC(=O)O)NC(=O)[C@@H](NC(=O)[C@H](CCSC)NC(=O)[C@H](CCCCN)NC(=O)[C@H](CCCNC(=N)N)NC(=O)[C@H](CC(C)C)NC(=O)[C@H](CC(C)C)NC(=O)[C@H](CCC(=O)O)NC(=O)[C@H](CC(C)C)NC(=O)[C@H](CO)NC(=O)[C@H](CC(C)C)NC(=O)[C@H](CC(=O)O)NC(=O)[C@@H](NC(=O)[C@H](CO)NC(=O)[C@@H](NC(=O)[C@@H]1CCCN1C(=O)[C@@H]1CCCN1C(=O)CNC(=O)[C@@H]1CCC(=O)N1)[C@@H](C)CC)[C@@H](C)CC)[C@@H](C)CC)[C@@H](C)CC)[C@@H](C)O)C(N)=O` [sauvagine], the “ED50 for suppression of heat-induced edema in the rat” value in assay [7] is reported as 0.44 nmol/kg.

“NDDPPISIDLTFHLLRNMIEMARIENEREQAGLNRKYLDEV-NH2 (C-terminus assumed) [white sucker fish urotensin I]”: the “ED50 for suppression of heat-induced edema in the rat” value in assay [7] was 1.5 nmol/kg.

As for “NDDP[dP]ISIDLTFHLLRNMIEMARIENEREQAGLNRKYLDEV-NH2 [[D-Pro^5]white sucker fish urotensin I]”, in assay [1] (setting [8]), the “ED50 (95% CL) μg/kg i.v.” value is 9 (5-17) μg/kg.

On to `CC[C@H](C)[C@H](NC(=O)[C@H](CO)NC(=O)[C@H](CC(C)C)NC(=O)[C@@H]1CCCN1C(=O)[C@@H]1CCCN1C(=O)[C@H](CC(=O)O)NC(=O)[C@@H](N)CC(=O)O)C(=O)N[C@@H](CC(=O)O)C(=O)N[C@@H](CC(C)C)C(=O)N[C@H](C(=O)N[C@@H](Cc1ccccc1)C(=O)N[C@@H](Cc1c[nH]cn1)C(=O)N[C@@H](CC(C)C)C(=O)N[C@@H](CC(C)C)C(=O)N[C@@H](CCCNC(=N)N)C(=O)N[C@H](C(=O)N[C@@H](CC(C)C)C(=O)N[C@@H](CC(C)C)C(=O)N[C@@H](CCC(=O)O)C(=O)N[C@@H](CC(C)C)C(=O)N[C@@H](C)C(=O)N[C@@H](CCCNC(=N)N)C(=O)N[C@H](C(=O)N[C@@H](CCC(N)=O)C(=O)N[C@@H](CO)C(=O)N[C@@H](CCC(N)=O)C(=O)N[C@@H](CCCNC(=N)N)C(=O)N[C@@H](CCC(=O)O)C(=O)N[C@@H](CCCNC(=N)N)C(=O)N[C@@H](C)C(=O)N[C@@H](CCC(=O)O)C(=O)N[C@@H](CCC(N)=O)C(=O)N[C@@H](CC(N)=O)C(=O)N[C@@H](CCCNC(=N)N)C(=O)N[C@H](C(=O)N[C@H](C(=O)N[C@@H](Cc1ccccc1)C(=O)N[C@@H](CC(=O)O)C(=O)N[C@@H](CO)C(=O)N[C@H](C(N)=O)C(C)C)[C@@H](C)CC)[C@@H](C)CC)[C@@H](C)O)[C@@H](C)O)[C@@H](C)O` [urocortin (rat), reference compound], for which the concentration giving a half-maximal response (EC50) in assay [2] turned out to be 0.15 nM; in assay [6], 0.32 nM.

Regarding “SEEP[dP]ISLDLTFHLLREVLEMTKADQLAQQAHSNRKLMEII-NH2 [[D-Pro^5, Thr^22, Lys^23, Asp^25]h/rCRF]”, the “ED50 (95% CL) μg/kg i.v.” value in assay [1] (Table 3, i.v.) was 19 µg/kg; in assay [1] (setting [8]) it was 19 (9-38) μg/kg. Further, in assay [3], the “complex formation with CRF-binding protein” value is given as “did not form a complex with binding protein”.
